“Also recorded” adds a separate entry of the source.
What was measured:
[1] = tested on: anti-FVIII CD4+ cells; assay: CD4+ epitope repertoire to FVIII in hemophilia A mice; assay type: cell-based, mouse; settings: mice immunized s.c. with FVIII in Freund adjuvant
Source text: CD4^+ epitope repertoire to FVIII in hemophilia A mice. Mice were immunized with 1 microgram of purified recombinant human FVIII emulsified in Freund adjuvant, and injected subcutaneously three times. The first injection utilized complete Freund adjuvant. This procedure, as opposed to i.v. injections of soluble FVIII, was selected to ensure a strong immunization to FVIII and to reveal the broadest epitope repertoire recognized by anti-FVIII CD4^+ cells.
FIG. 48 summarizes the results obtained regarding the anti-FVIII CD4^+ repertoire in the mice thus immunized. The individual peptides are indicated with codes that include two numbers, corresponding to the position of the first and last peptide residue on the sequence of the FVIII precursor. The responses to the individual peptides are organized in panels corresponding to the different domains, as indicated.

[2] = tested on: EMG; settings: s.c. or i.p. 300 μg in IFA, 7 days before or 7-18 days after first TAChR immunization; cited from earlier work
[3] = tested on: CD8+ depleted spleen cells; assay: Lymphocyte proliferation assay, CD8+ depleted spleen cells of IL-4 KO mice; assay type: cell-based, mouse; settings: for recognition of individual peptide by cells from sham-treated mice: IL-4 KO mice immunized with TAChR, 10 μg/ml peptide
Procedure: Lymphocyte Proliferation Assay. Two weeks after the last immunization, spleen cells (Bellone et al., 1991) were obtained from three identically treated IL-4 KO mice. The cells were pooled and depleted them in CD8^+ cells using paramagnetic beads and rat anti-mouse CD8^+ antibody (Pharmingen, San Diego, Calif.). The cells were suspended in RPMI-1640 (Gibco, Grand Island, N.Y.) supplemented with 10% heat inactivated fetal calf serum (Gibco), 50 μM 2-mercaptoethanol, 1 mM L-glutamine, 10 mM Hepes, 1 mM sodium pyruvate, 100 U/ml penicillin and 100 μg/ml streptomycin (×10^6 cells/ml). The cells were seeded in triplicate in 96 flat-bottom well plates (200 μl/well). One of the following antigens or stimulants was added: 10 μg/ml phytohemoagglutinine (PHA) (Sigma); 10 μg/ml TAChR; the pools of overlapping peptides spanning the α, β, γ, or δ subunit sequences (5 μg/ml) of each peptide); and 10 μg/ml of the individual a subunit peptides. Controls were triplicate wells cultivated without any antigen, or with or a 20-residue control peptide synthesized by the same method, unrelated to the TAChR sequence (10 μg). After four days the cells were labeled for 16 hours with ^3H-thymidine (1 μCi per well, specific activity 6.7 Ci/mmol, Dupont, Boston, Mass.), and harvested (Titertek, Skatron, Sterling, Va.). The ^3H-thymidine incorporation was measured by liquid scintillation.

[4] = tested on: SCID mice engrafted with BL; assay: Verification of myasthenic weakness with cholinesterase inhibitor in SCID mice engrafted with BL from MG patients; assay type: in vivo, mouse
Procedure: Assay of myasthenic symptoms. The myasthenic symptoms were quantified using a forced exercise test sensitized by administration of a minute amount of pancuronium bromide (0.03 mg/kg intraperitoneum) just before the test. The small amount of pancuronium inactivates a fraction of the mouse muscle AChR. […] The mice hang from a grid suspended above a soft padding, and the time it took the mouse to fall three times (“holding time”) was measured. The test is parametric and gives a quantitative assessment of the mouse weakness. The mice were tested without knowledge of the type of cells engrafted.
The myasthenic nature of the weakness was verified by injecting intraperitoneum edrophonium chloride (Reversol; Organon Inc., West Orange, N.J.). […] The concentrations of human IgG and IgM in the mouse sera was measured by ELISA. Microtiter plates (Nunc, Roskilde, Denmark) were coated with goat anti-human IgG or IgM Ab (pierce, Rockford, Ill.) in 20 mM sodium carbonate buffer, pH 9.5 (coating buffer), and blocked any uncoated sites with 3% bovine serum albumin (BSA) in coating buffer. Mouse sera diluted serially in PBS was added, and incubated at 4° C. overnight. After four washings with PBS containing 1% Triton X-100, peroxidase conjugated anti-human IgG and IgM Ab (Sigma, St. Louis, Mo.) was added. […] The optical density of the plates was read at 490 nm in an ELISA reader. […]

[5] = tested on: mice with EMG weakness; assay: Verification of myasthenic weakness with cholinesterase inhibitor in TAChR-immunized mice; assay type: in vivo, mouse; settings: i.p.
Procedure: To verify the myasthenic nature of the weakness observed, mice with significant weakness were injected i.p. with the cholinesterase inhibitor edrophonium chloride (Reversol, Organon Inc., West Orange, N.J.). […] The test was performed blindly, i.e., without knowledge of the treatment that the mouse had received.
Evaluation of Clinical Symptoms of EMG. The symptoms of EMG were quantified using a forced exercise by the inverted hang technique, sensitized by a minute amount of pancuronium bromide (0.03 mg/kg intraperitoneum), given just before the test (Karachunski et al., 1995). The mice hang from a grid, and the time it took for the mouse to release its hold and fall three times is measured (“holding time”). […] This test is parametric, and gives a quantitative assessment of the severity of the mouse weakness. […]
Evaluation of the symptoms of EMG The EMG symptoms were quantified using a forced exercise test sensitized by i.p. injection of a minute amount of pancuronium bromide (0.03 mg/kg) just before the test (Karachunski et al., 1995). The mouse hangs from a grid suspended above a soft padding, and the time it takes the mouse to fall three times (‘holding time’) was measured. The test is parametric, and gives a quantitative assessment of the mouse weakness. […]

[6] = tested on: anti-TAChR and anti-peptide IgG subclasses; assay: ELISA of anti-TAChR and anti-peptide IgG subclasses (Example III); assay type: in vivo, mouse; settings: IL-4 KO mice, nasal α epitope pool
Procedure: Assay of Anti-TAChR and Anti-peptide IgG Subclasses. The relative concentration of IgG subclasses of anti-TAChR and anti-peptide antibodies in the sera of peptide- and sham-treated mice was measured by ELISA after immunization with TAChR. Pooled sera from three-four mice that had received identical treatments was used. The sera used in this assay was obtained at the end of the observation period (10 weeks after beginning of the anti-TAChR immunization).
Ninety-six well plates (Nunc, Karstrup, Denmark) were washed extensively and incubated as follows: 4 hours with a 10 μg/ml solution of TAChR or of individual peptides Tα150-169, Tα181-200 and Tα360-378 in 0.1 M Na phosphate buffer, pH 9.5 (two wells for each antigen), 1 hr with PBS plus 3% bovine serum albumin (BSA), 2 hours with mouse serum (serial dilutions from 1:100 to 1:40,000 in PBS plus 3% BSA), 1 hr with a dilution 1:1000 in PBS plus 3% BSA of goat antibody specific for the total IgG, or IgGl, or IgG2a, or IgG2b or IgG3 (Mouse Monoclonal Isotyping Kit, Sigma, St. Louis, Mo.), and 30 minutes with a 1:3000 dilution of peroxidase-conjugate rabbit anti-goat IgG (Sigma) in PBS plus 3% BSA. The plates were washed, and developed them for 20-60 minutes with ABTS peroxidase substrate system (Kirkegaard & Perry Laboratories Inc., Gaithersburg, Md.). […] The OD was read at 405 nanometers. […]

[7] = tested on: spleen CD4+ T-cells; assay: Lymphocyte proliferation assay, spleen CD4+ T-cells (Example IV); assay type: cell-based, mouse; settings: TAChR-immunized B6 mice, 5 or 10 μg/ml
Procedure: Lymphocyte proliferation assay. Five to seven days after the last TAChR immunization, CD4^+ T-cells (Bellone et al., 1991a) were purified from the pooled spleens of three to four mice that had received identical treatments. Irradiated (3000 rad) spleen cells from non-immunized mice were diluted as needed in RPMI-1640 (Gibco, Grand Island, N.Y.) supplemented with 10% heat inactivated fetal calf serum (Gibco), 50 μM 2-mercapto-ethanol, 1 mM L-glutamine, 10 mM HEPES, 1 mM sodium pyruvate, 100 U/ml penicillin and 100 μg/ml streptomycin (culture medium) and used as APC. The spleen CD4^+ T-cells (1×10^6/ml in culture medium, 100×1/well) were seeded in triplicate in 96 flat-bottom well plates containing 100×1 of 5×10^6/ml APC. One of the following Ag was added: 10 μg/ml PHA (Sigma); 5 or 10 μg/ml TAChR; 5 or 10 μg/ml of the individual epitope peptides. The concentrations of TAChR and epitope peptides are in the saturating range of the dose dependence curve (Bellone et al., 1991a), and yielded consistent results. Controls were triplicate wells containing CD4^+ cells and APC without any Ag, or with the control peptide (10 μg/ml). After 4 days the cells were labeled for 16 hours with ^3H-thymidine (1 μCi per well, specific activity 6.7 Ci/mmol, Dupont, Boston, Mass.) and harvested (Titertek, Skatron, Sterling, Va.). The ^3H-thymidine incorporation was measured by liquid scintillation, and represented the results as stimulation indexes (S.I.: the ratio between the cpm obtained in the presence of a given stimulus, and the average cpm obtained for non-stimulated control cultures).

## 1671-1690: synthetic peptide, residues 1671-1690 of the FVIII precursor (RTTLQSDQEEIDYDDTISVE; UniProt P00451 1671-1690, looked up, fragment)
[1]
  recognition of individual FVIII peptides by CD4+ cells: recognized especially strongly

## peptide Tα146-162: overlapping synthetic TAChR α subunit peptide that overlaps Tα150-169 (LGIWTYDGTKVSISPES; UniProt P02710 170-186, looked up, fragment)
[2]
  effect on EMG: prevented EMG
[3]; IL-4 KO mice
  recognition of individual peptide by cells from peptide-treated mice: strongly
[3]
  recognition of individual peptide by cells from sham-treated mice: recognized strongly

## CC[N+](C)(C)c1cccc(O)c1 [Reversol, edrophonium chloride]
[4]; SCID mice
  effect on muscle strength of mice with normal holding time: did not increase the muscle strength
[4]; intraperitoneum, SCID mice engrafted with BL from MG patients
  effect on strength of affected mice: immediately improved the strength; also recorded: improvement of the muscle strength
[5]
  effect on strength of mice with weakness: immediately improved the strength; also recorded: immediately increased the strength

## 1-20: synthetic peptide, residues 1-20 of the FVIII precursor (MQIELSTCFFLCLLRFCFSA; UniProt P00451 1-20, looked up, fragment)
[1]
  recognition of individual FVIII peptides by CD4+ cells: recognized especially strongly

## peptide Tα360-378: synthetic peptide corresponding to residues 360-378 of the TAChR α subunit (VIFQTPLIKNPDVKSAIEG; UniProt P02710 384-402, looked up, fragment)
[6]
  anti-peptide IgG2a: moderate synthesis of IgG2a
[3]
  recognition of individual peptide by cells from sham-treated mice: recognized strongly
[7]
  response of CD4+ cells from sham-tolerized mice to the peptide: three of the five
